The test system of assay [1] is B16. Description: Compound was evaluated for antitumor activity against B16 melanoma cell lines in culture; IN-Inactive at 10E-4 concentration. Format: functional, cell-based. Particulars: Mus musculus.
Assay [2] relates to L1210. Description: Compound was evaluated for antitumor activity against L-1210 cell lines in culture; IN-Inactive at 10E-4 concentration. Particulars: Mus musculus. It counts as functional, cell-based.
Assay [3] relates to B16. As to the kind of experiment: Compound was evaluated for antitumor activity against B16 melanoma cell lines in culture. Format: functional, Mus musculus.
The subject of assay [4] is L1210. As to the kind of experiment: Compound was evaluated for antitumor activity against L-1210 cell lines in culture. Format: functional, Mus musculus.
Assay [5] is described as follows: Compound was evaluated for its concentration for antiviral activity against the replication of herpes simplex virus type 1 in monkey kidney cells. It counts as functional, Cercopithecidae.

The source made the active and inactive calls. The rule behind the calls is not given here.

On to `C#Cc1cn([C@@H]2O[C@H](CO)[C@@H](O)[C@@H]2N=[N+]=[N-])c(=O)[nH]c1=O`, for which the Inhibition entry in assay [1] and in assay [2] was “inactive” each time.
As for `C#Cc1cn([C@@H]2O[C@H](CO)[C@@H](O)[C@@H]2F)c(=O)nc1N`, the Inhibition in assay [3] and in assay [4] was approximately 60 µM each time. In assay [5], this compound showed an ID90 of 50 µM.

For the origin of these results see ChEMBL document CHEMBL1122787, “Acetylenic nucleosides. 3. Synthesis and biological activities of some 5-ethynylpyrimidine nucleosides” (1984).
